Data taken from BindingDB's records for patent US11013745 (Shanghai Institute of Material Medica, Chinese Academy of …, 2021).

Molecular target: T1, Histone-binding protein RBBP4/Histone-lysine N-methyltransferase EZH2/Polycomb protein EED [40-441]/Polycomb protein SUZ12 (Homo sapiens, UniProt O75530+Q09028+Q15022+Q15910)
T1 construct: 40-441
Assay: TR-FRET Assay
Description: The TR-FRET method was used to measure the PRC2 enzyme activity. First, the enzyme was mixed with compounds at different concentrations and incubated for 30 min at room temperature. The biotin-labeled histone H3 peptide substrate and the cofactor S-adenosylmethionine (SAM) were added to initiate the enzymatic reaction. After reaction was performed at room temperature for 4 hour, Acceptor and Donor were added and incubated for half an hour. The multifunctional microplate reader EnVision (Perkin Elmer Inc.) was used to detect the fluorescence signal.

T1 sequence (Q15910 whole entry): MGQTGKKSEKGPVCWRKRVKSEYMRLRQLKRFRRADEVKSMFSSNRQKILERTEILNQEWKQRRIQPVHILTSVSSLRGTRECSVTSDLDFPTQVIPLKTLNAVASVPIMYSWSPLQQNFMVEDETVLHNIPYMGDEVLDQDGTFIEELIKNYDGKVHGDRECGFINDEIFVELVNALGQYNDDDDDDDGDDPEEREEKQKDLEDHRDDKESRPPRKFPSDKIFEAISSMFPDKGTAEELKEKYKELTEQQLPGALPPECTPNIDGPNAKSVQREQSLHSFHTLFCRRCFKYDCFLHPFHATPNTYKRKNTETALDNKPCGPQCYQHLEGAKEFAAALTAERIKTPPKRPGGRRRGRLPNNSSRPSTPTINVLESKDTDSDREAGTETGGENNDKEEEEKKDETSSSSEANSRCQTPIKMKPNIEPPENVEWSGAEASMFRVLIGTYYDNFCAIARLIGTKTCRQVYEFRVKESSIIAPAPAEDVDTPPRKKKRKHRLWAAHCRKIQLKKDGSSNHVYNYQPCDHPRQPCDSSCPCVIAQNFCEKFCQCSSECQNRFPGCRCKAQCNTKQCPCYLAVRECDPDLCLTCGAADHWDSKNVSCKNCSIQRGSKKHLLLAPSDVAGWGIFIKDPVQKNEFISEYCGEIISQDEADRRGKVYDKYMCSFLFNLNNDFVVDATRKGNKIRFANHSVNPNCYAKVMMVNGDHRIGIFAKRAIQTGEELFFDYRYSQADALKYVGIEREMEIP
T1 sequence (Q15022 whole entry): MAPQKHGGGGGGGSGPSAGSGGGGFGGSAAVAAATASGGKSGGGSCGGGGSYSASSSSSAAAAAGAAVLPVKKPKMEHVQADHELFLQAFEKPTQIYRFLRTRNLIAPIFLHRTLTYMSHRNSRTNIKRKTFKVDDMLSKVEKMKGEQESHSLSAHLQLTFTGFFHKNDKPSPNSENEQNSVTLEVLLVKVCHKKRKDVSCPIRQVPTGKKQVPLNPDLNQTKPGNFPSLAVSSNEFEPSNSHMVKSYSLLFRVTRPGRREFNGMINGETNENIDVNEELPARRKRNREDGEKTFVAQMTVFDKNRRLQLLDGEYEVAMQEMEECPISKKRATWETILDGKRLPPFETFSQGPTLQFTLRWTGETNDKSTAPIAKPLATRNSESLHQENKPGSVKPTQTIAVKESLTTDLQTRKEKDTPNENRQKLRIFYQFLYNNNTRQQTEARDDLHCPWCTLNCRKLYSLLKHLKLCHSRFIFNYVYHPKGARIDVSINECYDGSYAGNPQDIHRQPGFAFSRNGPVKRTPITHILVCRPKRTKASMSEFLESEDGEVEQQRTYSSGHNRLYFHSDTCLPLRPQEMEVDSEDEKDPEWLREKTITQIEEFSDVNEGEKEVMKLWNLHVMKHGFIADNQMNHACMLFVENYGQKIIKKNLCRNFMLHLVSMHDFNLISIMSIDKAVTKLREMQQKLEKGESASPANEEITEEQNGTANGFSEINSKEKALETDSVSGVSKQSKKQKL
T1 sequence (Q09028 whole entry): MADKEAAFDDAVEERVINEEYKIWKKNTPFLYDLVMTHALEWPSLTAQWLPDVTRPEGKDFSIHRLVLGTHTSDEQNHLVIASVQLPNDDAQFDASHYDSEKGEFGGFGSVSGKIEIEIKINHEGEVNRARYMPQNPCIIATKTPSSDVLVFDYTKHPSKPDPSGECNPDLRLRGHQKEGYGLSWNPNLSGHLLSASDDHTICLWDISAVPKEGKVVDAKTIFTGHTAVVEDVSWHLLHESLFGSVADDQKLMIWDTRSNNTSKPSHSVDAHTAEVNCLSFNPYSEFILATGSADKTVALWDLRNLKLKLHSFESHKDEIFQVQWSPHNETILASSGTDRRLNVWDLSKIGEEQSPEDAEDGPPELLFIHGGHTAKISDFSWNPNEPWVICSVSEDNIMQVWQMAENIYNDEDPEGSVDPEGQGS
T1 sequence (O75530 40-441): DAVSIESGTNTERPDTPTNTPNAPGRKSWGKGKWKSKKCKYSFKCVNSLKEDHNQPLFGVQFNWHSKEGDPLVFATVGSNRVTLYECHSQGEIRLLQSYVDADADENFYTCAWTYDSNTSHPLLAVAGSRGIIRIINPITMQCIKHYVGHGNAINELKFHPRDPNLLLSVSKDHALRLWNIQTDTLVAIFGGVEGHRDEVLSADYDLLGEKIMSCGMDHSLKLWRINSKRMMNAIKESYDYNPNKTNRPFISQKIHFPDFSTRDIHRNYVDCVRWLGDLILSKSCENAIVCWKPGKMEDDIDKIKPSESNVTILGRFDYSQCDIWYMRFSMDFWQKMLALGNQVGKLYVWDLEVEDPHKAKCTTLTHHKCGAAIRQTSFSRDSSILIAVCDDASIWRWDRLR

IC50 [nM]	Structure (SMILES)
92	O=C(Nc1ccc(Cl)cc1)N1CC=C(c2cnc(NCc3ccco3)n3cnnc23)CC1 [US11013745, Compound E-Y27]
58.5	O=C(Nc1ccc(Cl)cc1)N1CC=C(c2cnc(NCc3c(F)ccc4c3CCO4)n3cnnc23)CC1 [US11013745, Compound E-Y38]
